Active and inactive are the calls of the source. The rule behind the calls is not given here.
System: not listed separately
Assay: Chikungunya virus CPE inhibition, VEEV inhibitor project, cell-based, set 2 (AID 651738)
Conditions: Chikungunya virus infected cells, CPE inhibition; at 50 µM (top of the series)

Question: Which inhibition does the source give for `CCN1CCN(Cc2nc3ccc(-c4ccccn4)cc3c(=O)n2-c2ccccc2)CC1` here?
Answer: The inhibition was 4.3% (inactive).

Question: With `O=c1c2cc(F)c(F)cc2nc(CN2CCNCC2)n1-c1ccccc1` as the compound, how does the inhibition read?
Answer: The inhibition was -1% (inactive).

Question: With `CCN1CCN(Cc2nc3ccc([N+](=O)[O-])cc3c(=O)n2-c2ccccc2F)CC1` as the compound, how does the inhibition read?
Answer: Its inhibition is -0.8% (inactive).

Question: For `CN1CCN(C)C(=Nc2ccc([N+](=O)[O-])cc2C(=O)Nc2ccccc2F)C1`, which inhibition is on record?
Answer: The inhibition was 8.6% (inactive).

Question: With `COc1ccc(Nc2nc(=O)c3cccnc3s2)cc1` as the compound, how does the inhibition read?
Answer: Its inhibition is 11.7% (inactive).

Question: With `CN1CCN(C)C(=Nc2ccc(C#N)cc2C(=O)Nc2ccccc2)C1` as the compound, how does the inhibition read?
Answer: The inhibition was 3% (inactive).

Question: For `CCN1CCN(C2c3ncccc3C(=O)N2c2ccccc2)CC1` (stereo not drawn), which inhibition is on record?
Answer: Its inhibition is -1.8% (inactive).

Question: With `O=c1c2cc([N+](=O)[O-])ccc2nc(CN2CCCNC2)n1-c1ccccc1` as the compound, how does the inhibition read?
Answer: Its inhibition is -0.2% (inactive).

Question: For `CN1CCN(C)C(=Nc2ccc([N+](=O)[O-])cc2C(=O)Nc2ccccc2)C1`, which inhibition is on record?
Answer: Its inhibition is -3.1% (inactive).

Question: With `O=c1c2cc([N+](=O)[O-])ccc2nc(CN2CCCNCC2)n1-c1ccccc1` as the compound, how does the inhibition read?
Answer: The inhibition was -3.1% (inactive).

Question: For `COc1ccc(CNc2nc(=O)c3cccnc3s2)cc1`, which inhibition is on record?
Answer: The inhibition was 0.1% (inactive).

Question: Which inhibition does the source give for `COc1ccc(NC(=O)c2cc([N+](=O)[O-])ccc2N=C2CN(C)CCN2C)cc1` here?
Answer: The inhibition was 2.2% (inactive).

System: Chikungunya virus infected cells, CPE inhibition
Assay: as above
Conditions: not given

Question: For `CN(c1ccc(OCc2ccccc2)cc1)c1nc(=O)c2cccnc2s1`, which IC50 is on record?
Answer: The IC50 was 1720 nM.

Reference: PubChem BioAssay AID651738 (Southern Research Specialized Biocontainment Screening …, 2012)
